# In patent US20260364168A1, “USE OF PROTEIN KINASE C (PKC) ACTIVATING COMPOUNDS AS AN ADJUVANT” (priority 2022, published 2026):
# Where two headings read alike, the source gives them in different places.
# How the values were obtained:
# [1] = test system: NFκB; experiment: NFκB luciferase reporter gene assay in HeLa-NFκB luciferase reporter cell line; assay type: cell-based; details: 16 h, 37 °C, luciferase/CTG normalized; read-out: NFκB-luc HeLa cells EC50
# Procedure: The PKC activator compounds were evaluated for their effect on NFκB expression using a luciferase reporter gene expression system. (The indicators “K-101,” “K101” and “K-101A” may be used interchangeably in this disclosure and appended figures).
# A HeLa-NFκB luciferase reporter cell line (Wuxi Biology) was used to assess a group of PKC activator compounds for their ability to activate NFκB-driven transcription. Two sets of cells at 20000 cells/well were plated, grown overnight, and then treated for 16 h at 37 °C with DMSO, 6 doses of each compound, or TNF-α (final concentration of 10 ng/mL, positive control) in triplicates. One set of cells was assayed for luciferase activity (Promega, Cat #E1500) and the other set was assayed to determine the number of viable cells (for cell number normalization) using CellTiter-Glo (CTG) kit (Promega, Cat #G7570) according to manufacture's procedures. Normalized data (luciferase value/CTG value) were analyzed using GraphPad Prism5 to calculate EC50 for each compound (see Table 3).
# [2] = test system: mouse splenocytes; experiment: IFN-γ ELISpot in mouse splenocytes; assay type: cell-based, C57BL/6J mice
# Procedure: Production of IFN-γ in response to infection or other stimuli is a hallmark of innate and adaptive immunity. To measure the effect of direct immune stimulation, freshly isolated splenocytes from three C57BL/6J mice were seeded in ELISpot plates pre-coated with anti-IFN-γ antibody (Mabtech, #3321-4AST-2) at 1 million splenocytes per well in OptiVitro® T Cell Serum-free Medium (Excellbio, Cat #TE000-N021). […] Detection of the IFN-γ spot-forming cells was performed according to the manufacture's protocol. Briefly, cells were removed from the ELISpot plates. After washing with PBS, the ELISpot plates were incubated with […] of the R4-6A2-biotin detection antibody for 2 hours at room temperature (RT) and then with streptavidin-ALP (1:1000) at RT for 1 hour. BCIP/NBT chromogen substrate solution was added to the plates until distinct spots emerged. The spots (IFN-γ-secreting cells) were counted using an AID ELISPOT reader.
# [3] = test system: human PBMC cells; experiment: cytokine/chemokine gene expression (TaqMan) in human PBMC; details: 4 h
# Procedure: Materials and methods: 100 million frozen human PBMC cells were purchased from Allcells (100 million/vial). The cells were thawed and recovered for one day before 1.5-1.8 million cells in 900 μl RPMI1640 with 10% heat-inactivated FBS were seeded in each well of 24-well plates. Various compounds in DMSO stock (500×) were diluted 50-fold with the same media to make 10× compound stock for most compounds. 1 μL of 5 mg/mL PMA was diluted to 99 μL of the media to make 50 μg/mL PMA. For PMA with ionomycin treatment condition, 1.5 μL of 50 μg/mL PMA and 3 μL of 500 μg/mL ionomycin were added to 145.5 μL of the media to make 10× compound stock. Sources of the compounds are as follows: PMA from Abcam (Abcam #ab120297); Ionomycin from Sigma (Sigma #I0634); Resiquimod from Sellect Chem. (Selleckchem #S8133); and LPS from Sigma (Sigma #L6143).
# Each treatment condition was performed in duplicates. After treatment, mRNA was extracted from cells and samples from duplicates were combined for TaqMan gene expression assays (ThermoFisher) in triplicates. Expression of 19 genes (IL-1β, IL-2, IL-4, IL-6, IL-8, IL-10, IL-13, IL-18, IL-12p70/IL-12A, IL-12p40/IL-12B, IFN-α, IFN-γ, GM-CSF/CSF2, CCL2/MCP-1, MIP1a/CCL3, TNF-α, MX1, OAS1, ISG15) along with two housekeeping gene controls, 18S and GAPDH, was determined. Target gene expression in each sample was determined by relative quantification (RQ) using the comparative Ct (ΔΔCT) method. This method measures the Ct difference (ΔCT) between target gene and the housekeeping genes (18S & GAPDH), then compares the ΔCT values of treated samples to DMSO-treated control samples. The mean ΔCT value of the DMSO-treated control from two independent DMSO-treated control samples was used. The relative expression level of target gene was calculated by using the equation:
# relative expression=2^−ΔΔCT
# [4] = test system: NFκB; details: in vitro, TLR5-dependent and -independent; Oh et al. 2014; cited from earlier work
# [5] = test system: antigen-specific antibody as well as T cell responses; details: in vivo; Oh et al. 2014; cited from earlier work
# [6] = test system: DC cells; details: Yan et al. 2010; cited from earlier work
# [7] = test system: antigen-specific T cell responses; details: Yan et al. 2010; cited from earlier work
# [8] = 0.03 μM, vs DMSO, 240 min, 0.03 µM
# [9] = 0.10 μM, vs DMSO, 240 min, 0.1 µM
compound,measurement,setting,value
CC1=C[C@H]2[C@@]3(O)[C@H](C)C[C@]4(OC(=O)C(N)CCCCCCc5ccccc5)[C@H]([C@@H]3C=C(CO)C[C@]2(O)C1=O)C4(C)C (some centres unmarked),EC50,[1],10 to 30 nM
same,IFN-γ secreting cells/million splenocytes,"[2]; 60 nM, 24 h, Mouse 1",245 cells/million splenocytes
same,IFN-γ secreting cells/million splenocytes,"[2]; 60 nM, 24 h, Mouse 2",137 cells/million splenocytes
same,IFN-γ secreting cells/million splenocytes,"[2]; 60 nM, 24 h, Mouse 3",110 cells/million splenocytes
same,IFN-γ secreting cells/million splenocytes,"[2]; 200 nM, 24 h, Mouse 1",saturated
same,IFN-γ secreting cells/million splenocytes,"[2]; 200 nM, 24 h, Mouse 2",saturated
same,IFN-γ secreting cells/million splenocytes,"[2]; 200 nM, 24 h, Mouse 3",saturated
same,dose-response of IFN-γ production,"[2]; 60 and 200 nM, in words",a trend of dose-response
same,minimal effective concentration,"[2]; Splenocyte, mouse splenocytes, 24 h, read-out: concentration (as low as) at which IFN-γ production was stimulated",0.06 µM
same,ISG15 gene relative expression,"[3]; 0.03 μM, vs DMSO",0.97
same,MX1 gene relative expression,"[3]; 0.03 μM, vs DMSO",0.65
same,CCL2 gene relative expression,[3]; [8],4.55
same,GM-CSF gene relative expression,[3]; [8],1.89
same,IFN-α gene relative expression,[3]; [8],1.66
same,IFNγ gene relative expression,[3]; [8],1.62
same,IL-1β gene relative expression,[3]; [8],0.54
same,IL-2 gene relative expression,[3]; [8],1.71
same,IL-6 gene relative expression,[3]; [8],0.74
same,IL-8 gene relative expression,[3]; [8],0.80
same,IL-10 gene relative expression,[3]; [8],1.27
same,IL-12p40 gene relative expression,[3]; [8],0.74
same,IL-12p70 gene relative expression,[3]; [8],1.02
same,IL-13 gene relative expression,[3]; [8],0.40
same,IL-18 gene relative expression,[3]; [8],0.47
same,MIP1a (CCL3) gene relative expression,[3]; [8],1.86
same,OAS1 gene relative expression,[3]; [8],0.64
same,TNF-α gene relative expression,[3]; [8],1.38
same,CCL2 gene relative expression,[3]; [9],3.12
same,GM-CSF gene relative expression,[3]; [9],7.74
same,IFN-α gene relative expression,[3]; [9],0.73
same,IFNγ gene relative expression,[3]; [9],3.47
same,IL-1β gene relative expression,[3]; [9],1.58
same,IL-2 gene relative expression,[3]; [9],7.65
same,IL-4 gene relative expression,[3]; [9],1.61
same,IL-8 gene relative expression,[3]; [9],0.53
same,IL-10 gene relative expression,[3]; [9],0.48
same,IL-12p70 gene relative expression,[3]; [9],0.93
same,IL-13 gene relative expression,[3]; [9],47.45
same,IL-18 gene relative expression,[3]; [9],0.09
same,ISG15 gene relative expression,[3]; [9],1.16
same,MIP1a (CCL3) gene relative expression,[3]; [9],2.39
same,MX1 gene relative expression,[3]; [9],0.72
same,OAS1 gene relative expression,[3]; [9],0.55
same,TNF-α gene relative expression,[3]; [9],4.04
same,fold induction at 0.3 µM,"[3]; Homo sapiens, PBMC, read-out: CCL2 gene relative expression, 0.3 μM, 4 h, vs DMSO",2.09
same,fold induction at 0.3 µM,"[3]; Homo sapiens, PBMC, read-out: GM-CSF gene relative expression, 0.3 μM, 4 h, vs DMSO",10.5
same,fold induction at 0.3 µM,"[3]; Homo sapiens, PBMC, read-out: IFN-α gene relative expression, 0.3 μM, 4 h, vs DMSO",0.95
same,fold induction at 0.3 µM,"[3]; Homo sapiens, PBMC, read-out: IFNγ gene relative expression, 0.3 μM, 4 h, vs DMSO",18.6
same,fold induction at 0.3 µM,"[3]; Homo sapiens, PBMC, read-out: IL-1β gene relative expression, 0.3 μM, 4 h, vs DMSO",1.53
same,fold induction at 0.3 µM,"[3]; Homo sapiens, PBMC, read-out: IL-2 gene relative expression, 0.3 μM, 4 h, vs DMSO",3.41
same,fold induction at 0.3 µM,"[3]; Homo sapiens, PBMC, read-out: IL-4 gene relative expression, 0.3 μM, 4 h, vs DMSO",2.57
same,fold induction at 0.3 µM,"[3]; Homo sapiens, PBMC, read-out: IL-6 gene relative expression, 0.3 μM, 4 h, vs DMSO",4.85
same,fold induction at 0.3 µM,"[3]; Homo sapiens, PBMC, read-out: IL-8 gene relative expression, 0.3 μM, 4 h, vs DMSO",0.59
same,fold induction at 0.3 µM,"[3]; Homo sapiens, PBMC, read-out: IL-10 gene relative expression, 0.3 μM, 4 h, vs DMSO",0.06
same,fold induction at 0.1 µM,"[3]; Homo sapiens, PBMC, read-out: IL-12p40 gene relative expression, 0.10 μM, 4 h, vs DMSO",0.45
same,fold induction at 0.3 µM,"[3]; Homo sapiens, PBMC, read-out: IL-12p40 gene relative expression, 0.3 μM, 4 h, vs DMSO",0.69
same,fold induction at 0.3 µM,"[3]; Homo sapiens, PBMC, read-out: IL-12p70 gene relative expression, 0.3 μM, 4 h, vs DMSO",0.61
same,fold induction at 0.3 µM,"[3]; Homo sapiens, PBMC, read-out: IL-13 gene relative expression, 0.3 μM, 4 h, vs DMSO",78.9
same,fold induction at 0.3 µM,"[3]; Homo sapiens, PBMC, read-out: IL-18 gene relative expression, 0.3 μM, 4 h, vs DMSO",0.04
same,fold induction at 0.3 µM,"[3]; Homo sapiens, PBMC, read-out: ISG15 gene relative expression, 0.3 μM, 4 h, vs DMSO",1.14
same,fold induction at 0.3 µM,"[3]; Homo sapiens, PBMC, read-out: MIP1a (CCL3) gene relative expression, 0.3 μM, 4 h, vs DMSO",3.37
same,fold induction at 0.3 µM,"[3]; Homo sapiens, PBMC, read-out: MX1 gene relative expression, 0.3 μM, 4 h, vs DMSO",0.57
same,fold induction at 0.3 µM,"[3]; Homo sapiens, PBMC, read-out: OAS1 gene relative expression, 0.3 μM, 4 h, vs DMSO",0.42
same,fold induction at 0.3 µM,"[3]; Homo sapiens, PBMC, read-out: TNF-α gene relative expression, 0.3 μM, 4 h, vs DMSO",4.13
"CCCCCCCCCCCCCC(=O)O[C@@H]1[C@@H](C)[C@@]2(O)[C@@H](C=C(CO)C[C@]3(O)C(=O)C(C)=C[C@@H]23)[C@@H]2C(C)(C)[C@]12OC(C)=O [PMA, Phorbol 12-myristate 13-acetate]",PKC-dependent NFκB activation,[4],induce PKC-dependent NFκB activation
same,antigen-specific antibody as well as T cell responses,[5],boosts antigen-specific antibody as well as T cell responses in vivo
CCC/C=C/C=C/C(=O)O[C@H]1/C(=C/C(=O)OC)C[C@H]2C[C@H]([C@@H](C)O)OC(=O)C[C@H](O)C[C@@H]3C[C@H](OC(C)=O)C(C)(C)[C@](O)(C[C@@H]4C/C(=C/C(=O)OC)C[C@H](/C=C/C(C)(C)[C@]1(O)O2)O4)O3 [Bryostatin],chemokine expression in DC cells,[6],induces chemokine expression in DC cells
same,antigen-specific T cell responses from a peptide-based vaccine,[7],stimulates an antigen-specific T cell responses
